Experimental data published in patent US4055640A, “Compositions and methods for controlling the growth of bacteria, fungi and algae using certain derivatives of N-(2,2-dichlorovinyl)salicylamides” (Nippon Kayaku Co., Ltd., priority 1975, dated 1977).
Values after ≈ are worked out from the molar mass of the structure shown. Values joined by “and” are separate entries in the source; they are usually repeats but may differ in a detail not shown here. Equal values may be shown once. Where a name gives a salt, the structure may show the parent alone.

Experiments:
[1] = system: Aspergillus niger; assay: Minimum inhibitory concentration, dilution methods (Example 14); format: cell-based
Source text: (§1) Bacteriocidal activity and fungicidal activity of the active compounds of the present invention were examined by potato-dextrose agar dilution method, [2] waxman's liquid medium dilution method or [3] glucose bouillon medium dilution method. The results are shown in Table 4 below as the minimum inhibitory concentration (the minimum concentration of active compound found to produce 100% control of the test bacteria and fungi).

[2] = system: Cladosporium harbarum; assay: as above; format: cell-based; settings: for minimum inhibitory concentration: (1) potato-dextrose agar dilution method
Source text: as §1

[3] = system: Escherichia coli; assay: as above; format: cell-based; settings: Escherichia coli
Source text: as §1

[4] = system: Penicillium Citrinum; assay: as above; format: cell-based; settings: for MIC: Penicillium citrinum
Source text: as §1

[5] = system: Bacillus subtilis; assay: as above; format: cell-based; settings: Bacillus subtilis
Source text: as §1

[6] = system: Staphylococcus aureus; assay: as above; format: cell-based; settings: for minimum inhibitory concentration: (1) potato-dextrose agar dilution method; for MIC: Staphylococcus aureus
Source text: as §1

[7] = system: Cladosporium cucumerinum (cucumber scab); assay: Exterminating test on cucumber scab (Experimental Example 2); format: in vivo; parameters: scale not given here; settings: 500 ppm, 5 days after inoculation
Procedure, shortened: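 Potted cucumber seedlings (cv. Sagamihanjiro, 3–4 leaf stage) were sprayed with an aqueous suspension of 80% wettable powder, then spray-inoculated with Cladosporium cucumerinum spores 24 h later. Plants were held 24 h in a moist chamber at 20° C, then in a greenhouse at 20° C. Infected Index was scored 5 days after inoculation from leaf counts by attack severity.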

[8] = system: Rhizoctonia solani (damping-off of cucumber); assay: Exterminating test on damping-off of cucumber (Experimental Example 3); format: in vivo; settings: Rhizoctonia solani, soil, 240 h, 1,000 ppm, soil drench 50 ml per pot, 10 days; read-out: Percentage of healthy seedlings
Procedure, shortened: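 Percentage of healthy seedlings was scored 10 days post inoculation, with PCNB 50% wettable powder run alongside as reference. Each pot held 10 Azumamidori cucumber seeds in field soil carrying 5 g Rhizoctonia solani. Soil drench: 50 ml water suspension of 80% wettable powder; greenhouse.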

[9] = system: Cucumber seeds (variety: Oyashima); assay: Phytotoxicity on cucumber seeds (Experimental Example 7); format: in vivo
[10] = system: Cladosporium cucumerinum; assay: Exterminating test for seed treatment (Experimental Example 7); format: in vivo
Source text: Exterminating test for seed treatment. Cucumber seeds (variety: Oyashima) were dipped in the spores suspension of Cladosporium cucumerinum and dried. After 1 day, the seeds were dressed with 80% wettable powder of the present invention. On the other hand, other seeds were dipped in the solution of 80% wettable powder of the present invention. Five (5) seeds treated by either dressing or dipping were placed on each potato dextrose agar plate. After 10 days after the treatment, degrees attacked by the pathogen were observed and the results were shown with an "Effective Index". An "Effective Index" was calculated as follows: [formula]

[11] = system: botrytis cinerea (gray mold); assay: Exterminating test on gray mold of tomato (Experimental Example 5); format: in vivo; parameters: scale not given here; settings: 1,000 ppm, 48 hours after inoculation, kidney bean leaves
Procedure, shortened: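 Kidney bean seedlings (5-6 leaf stage) sprayed with water-diluted 80% wettable powder; leaves detached 24 h later and inoculated with B. cinerea agar disks under moist conditions. Lesion diameters measured 48 h post-inoculation to calculate an Effect Index.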

[12] = system: seedlings of kidney beans (variety: Orient); assay: Phytotoxicity on kidney beans (Experimental Example 5); format: in vivo; settings: 1,000 ppm
[13] = system: summer orange seedlings; assay: Phytotoxicity on summer orange seedlings (Experimental Example 6); format: in vivo; settings: 1,000 ppm
[14] = system: cucumber seedlings (variety: Sagamihanjiro); assay: Phytotoxicity on cucumber seedlings (Experimental Example 2); format: in vivo; settings: 500 ppm
Procedure, shortened: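 Cucumber seedlings at the 3–4 leaf stage sprayed with water-diluted 80% wettable powder, then spray-inoculated with Cladosporium cucumerinum spores 24 h later. Plants held 24 h in a moist chamber at 20° C, then kept in a greenhouse at 20° C.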

[15] = (2) waxman's liquid medium dilution method
[16] = (1) potato-dextrose agar dilution method
[17] = (3) glucose bouillon medium dilution method

Row | SMILES | minimum inhibitory concentration [2] | minimum inhibitory concentration [6] | Infected Index [7] | pest or weed control at 1000 ppm [8] | Phytotoxicity ([9]; dipped, 5,000 ppm (30 min.)) | Phytotoxicity ([9]; dressed, 1 %) | Effective Index ([10]; dipped, 5,000 ppm (30 min.)) | Effective Index ([10]; dressed, 1 %) | Effect Index [11] | Phytotoxicity [12] | Phytotoxicity [13] | Phytotoxicity [14] | other results
1 | O=C(NC=C(Cl)Cl)c1ccccc1O [Compound No. 1, N-(β,β-dichlorovinyl) salicylamide] | 10 mc g/ml | 2.5 mc g/ml | 9.4 | 100% | Nil | Nil | 69 | 87 | 84 | Nil | Nil | Nil | minimum inhibitory concentration [1, 15]: 10 mc g/ml; MIC ([1]; Aspergillus niger, (1) potato-dextrose agar dilution method): 10 µg/mL (≈ 43.1 µM); MIC ([2]; Cladosporium, (2) waxman's liquid medium dilution method): 5 µg/mL (≈ 21.5 µM); MIC [3, 16]: 80 µg/mL (≈ 345 µM); MIC [3, 15]: 80 µg/mL (≈ 345 µM); MIC [4, 16]: 10 µg/mL (≈ 43.1 µM); MIC [4, 15]: 20 µg/mL (≈ 86.2 µM); MIC [5, 16]: 2.5 µg/mL (≈ 10.8 µM); MIC [5, 15]: 5 µg/mL (≈ 21.5 µM); MIC [6, 15]: 2.5 µg/mL (≈ 10.8 µM)
2 | CC(=O)Oc1ccccc1C(=O)NC=C(Cl)Cl [Compound No. 6, O-acetyl-N-(2,2-dichlorovinyl) salicylamide] |  |  | 8.2 | 100% | Nil | Nil | 88 and 81 | 95 | 75 | Nil | Nil | Nil | 
3 | O=C(NC=C(Cl)Cl)c1ccccc1O [Compound No. 20, sodium salt of N-(β,β-dichlorovinyl) salicylamide] | 2.5 mc g/ml | 6 mc g/ml | 13.7 |  |  | Nil |  | 90 | 85 | Nil |  | Nil | minimum inhibitory concentration [1, 16]: 10 mc g/ml; MIC [3, 17]: 60 µg/mL; minimum inhibitory concentration [4, 16]: 10 mc g/ml; MIC [5, 17]: 5 µg/mL; MIC [6, 17]: 5 µg/mL
